# Bridges are numbered along the chain shown (N, C = ends). Where no end group is shown, it is not given here. [ ]: non-standard residue; d: D form. R8 = C=CCCCCCC[C@@](C)(N)C(=O)O; S5 = C=CCCC[C@](C)(N)C(=O)O
# How the values were obtained:
# anti-ApoA-I antibodies [1] = assay: ELISA immunoreactivity of ApoA-I digestion fragments (epitope identification); format: binding, human; conditions: sera from 3 patients with high and 3 with low autoantibody titers
# Experimental: To identify specific endogenous epitopes of ApoA-I, the purified ApoA-I was submitted to enzymatic digestion, hydrolyzing the protein specifically at the carboxyl side of lysine or at the carboxylic side of arginine, followed by peptide separation and purification by reversed phase-high performance liquid chromatography and peptide identification by mass spectrometry. The immunoreactivity to the digested protein and each fraction were tested by ELISA using serum samples from 3 patients with high titers and serum samples from 3 patients with low titers of autoantibodies.
# For ApoA-I digested at lysine residues, the enzyme Endoproteinase Lys-C(Roche Applied Science) was used (amount of enzyme 1:50 was 1/50 of protein by weight, incubation for 18 h at 37° C., pH 8.5). ApoA-I digestion with Lys-C allowed identification of fractions 70 and 71 (FIG. 8) containing a previously unreported immunoreactive peptide epitope of amino acid sequence corresponding to amino acid residues 141-182 relative to mature amino acid sequence of ApoA-I of SEQ ID NO: 1, comprising the region derived from helix D of SEQ ID NO: 5 with a deletion of the last 2 amino acids of SEQ ID NO: 5. The amino acid sequence of this epitope is SEQ ID NO: 21.
# In order to generate peptide fragments cleaved at arginine residues the conventional way would to use the enzyme ArgC. However, ArgC enzyme has a recognized lack of specificity, generating tryptic peptides, which abolished the immunoreactivity. […] This approach allowed identification of fractions 74 and 80 (FIG. 9) containing another immunoreactive peptide epitope of amino acid sequence corresponding to amino acid residues 216-243 relative to mature amino acid sequence of ApoA-I of SEQ ID NO: 1, comprising the region 1 derived from helix F of SEQ ID NO: 8. The amino acid sequence of this epitope is SEQ ID NO: 25.
# [2] = CD spectroscopy to determine helical content; format: physicochemical; conditions: troughs at 208 and 222 nm, in comparison to non-stapled control peptide F3
# Experimental: Circular dichroism (CD) spectra from 185 to 240 nm were collected on a Jasco J-815 spectropolarimeter at 20° C. A typical sample was prepared by dissolving lyophilized peptide in 25% trifluoroethanol in water to obtain a concentration of 2 mM, then diluting this solution 20-fold in water and loading in a quartz cuvette (0.2 cm path length). Baseline CD spectra for 1.25% TFE in water was subtracted from the experimental spectra. Data were normalized by calculating the mean residue ellipticity at wavelength 222 nm, (θ)mrw, λ.
# anti-ApoA-I antibodies [3] = assay: Competition ELISA on plates coated with intact ApoA-I; format: binding, human
# Experimental: Competition ELISA experiments using selected synthetic peptides were also carried out. Synthetic peptides (dissolved in PBS with 2% bovine serum albumin (BSA) at different concentrations were co-incubated with patient sera containing high levels of anti-ApoA-I IgG for 2 h at room temperature, before being added to the wells coated with purified, human-derived delipidated ApoA-I as described above, prior to development of the assay as described above.
# In competition ELISA assays, serum from a patient known to be positive for anti-ApoA-I antibodies was preincubated with peptide F3L1 at different concentrations as indicated in FIG. 3 and then added to ELISA plates coated with intact ApoA-I, with the subsequent assay steps carried out according to the standard protocol.
# [4] = test system: Neonatal rat ventricular cardiomyocytes (NRVC); assay: Anti-ApoA-I IgG-related chronotropic response (beating frequency); format: cell-based
# From the text: Neonatal rat ventricular cardiomyocytes (NRVC) were isolated from ventricles of 1-2 day-old Wistar rats by digestion with low trypsin-EDTA and type 2 collagenase. Animals were killed by decapitation without any anesthesia, analgesia, or administration of neuromuscular blocking agents, in conformity with the Guide for the Care and Use of Laboratory Animals published by the NIH (publication 85-23) and with the authorization (1012/3134/0-R) of the local county veterinary office. Freshly isolated cells were seeded in plastic flasks to allow selective adhesion of cardiac fibroblasts. Thereafter cardiomyocytes were decanted from the flasks and distributed into laminin-coated 90 mm petri dishes.
# After 1-2 days' culture, cells were incubated at time intervals with the appropriate concentration of monoclonal anti-ApoA-I IgG (Abcam, Nottingham, UK) or vehicle in serum-free DMEM. The beating frequency of spontaneously contracting small cell monolayers was determined immediately at the end of the pre-incubation period (t=0) and at different times after the addition of various substances. Frequency determinations were performed by a technician (unaware of the experimental conditions) using a light microscope to count the number of contractions per time unit in three different locations of the dish. The regularity of the cell contractions has been previously assessed by monitoring cytosolic-free calcium fluctuations with fluorescent calcium probes (Maturana et al, 2009, Endocrinology 150:3726-3734). […] Competition inhibition experiments with synthetic peptides were performed using the same experimental conditions. Synthetic peptides were co-incubated with 10 μg/ml monoclonal anti-ApoA-I (Abcam, Nottingham, UK) for 2 h at room temperature, before being added to NRVC in dishes, with beating frequency determined as described above.
# [5] = test system: Human monocyte-derived macrophages (HMDMs); assay: Anti-ApoA-I IgG-related pro-inflammatory response (TNF-α production); format: cell-based
# Experimental: Human monocyte-derived macrophages (HMDMs) were obtained by treating human monocytes with interferon (IFN)-γ for 24 hours as previously described (Pagano et al, 2012, J Intern Med). HMDMs were then stimulated in 96-well trays for 24 h with increasing concentrations (5-40 μg/mL) of either polyclonal anti-human ApoA-I (Academy Bio-Medical Company, Houston, Tex., USA) or control antibody (Meridian Life Science, Saco, Me., USA), with IgG from pool+ or pool− (500 μg/mL). In this model, LPS-free anti-ApoA-I IgG has been show to promote the production of TNF-α and IL-6 in a dose dependent manner, with an optimal stimulation at 40 μg/ml (Pagano et al, 2012, J Intern Med).
# For competition inhibition experiments, synthetic peptides were co-incubated with 40 μg/ml polyclonal anti-ApoA-I IgG for 2 h at room temperature prior to addition to HMDMs in 96-well plates, and followed by the assessment of IL-6 and TNF-α levels in cell supernatants using Luminex MAP™ Technology. Experiments were performed with blood from three different donors.
# [6] = serum from 3 anti-ApoA-I positive patients, FIG. 5
Substance,immunoreactivity to anti-ApoA-I antibodies (anti-ApoA-I antibodies [1]),alpha-helical content [2],other results
EEMRDRARAHVDALRTHLAPYSDELRQRLAARLEALKEN (Region derived from Helix D of ApoA-I) [SEQ ID NO: 5],more immunoreactive,–,–
Ac-VLESFKVSXaaLSALEEXaaTKKLNT-NH2 (Ac-VLESFKVS[R8]LSALEE[S5]TKKLNT-NH2; staple 9-16) [F4S2B],–,increased alpha-helical content,–
QGLLPVLESFKVSFLSALEEYTKKLNTQ (F5) [SEQ ID NO: 25],immunoreactive,–,–
"GLLPVLESFKVSFLSALEEYTKKLNT (not fully specified (bridges)) [SEQ ID NO: 9, Region 2 derived from helix F]",more immunoreactive,–,–
"VLESFKVSFLSALEEYTKKLNT (not fully specified (bridges)) [SEQ ID NO: 8, Region 1 derived from helix F]",more immunoreactive,–,–
Ac-GLLPVLESFKVSFLSALEXaaYTKXaaLNT-NH2 (Ac-GLLPVLESFKVSFLSALEEYTKKLNT-NH2; lactam 19-23; SMILES CC(=O)NCC(=O)N[C@@H](CC(C)C)C(=O)N[C@@H](CC(C)C)C(=O)N1CCC[C@H]1C(=O)N[C@H](C(=O)N[C@@H](CC(C)C)C(=O)N[C@@H](CCC(=O)O)C(=O)N[C@@H](CO)C(=O)N[C@@H](Cc1ccccc1)C(=O)N[C@@H](CCCCN)C(=O)N[C@H](C(=O)N[C@@H](CO)C(=O)N[C@@H](Cc1ccccc1)C(=O)N[C@@H](CC(C)C)C(=O)N[C@@H](CO)C(=O)N[C@@H](C)C(=O)N[C@@H](CC(C)C)C(=O)N[C@@H](CCC(=O)O)C(=O)N[C@H]1CCC(=O)NCCCC[C@@H](C(=O)N[C@@H](CC(C)C)C(=O)N[C@@H](CC(N)=O)C(=O)N[C@H](C(N)=O)[C@@H](C)O)NC(=O)[C@H](CCCCN)NC(=O)[C@H]([C@@H](C)O)NC(=O)[C@H](Cc2ccc(O)cc2)NC1=O)C(C)C)C(C)C) [F3L1],–,increased alpha-helical content,"inhibition of binding of patient serum IgG to intact ApoA-I (anti-ApoA-I antibodies [3]; [6]): competes effectively; inhibition of binding of patient serum IgG to intact ApoA-I (anti-ApoA-I antibodies [3]; serum from one anti-ApoA-I positive patient, FIG. 4): capable of competitively inhibiting; effect on anti-ApoA-I IgG related chronotropic response ([4]; antibody pre-incubated with peptide 75 μg/ml for 2 h, FIG. 7): fully abrogated; basal frequency contraction rate ([4]; peptide added alone): did not alter; contraction rate in the presence of 10 nM aldosterone ([4]; peptide added alone, 10 nM aldosterone): did not alter; effect on TNF-α production induced by anti-ApoA-I IgG ([5]; polyclonal anti-ApoA-I IgG 40 μg/ml pre-incubated with peptide 2 h, FIG. 6A): abrogated; effect on TNF-α production induced by pool of IgG from anti-ApoA-I positive patients ([5]; pooled patient IgG pre-incubated with peptide, FIG. 6B): same effect"
Ac-GLLPVLESFKVSFLSXaaLEEYTKXaaLNT-NH2 (Ac-GLLPVLESFKVSFLS[R8]LEEYTK[S5]LNT-NH2; staple 16-23) [F3S2A],–,increased alpha-helical content,–
LSPLGEEMRDRARAHVDALRTHLAPYSDELRQRLAARLEALK (D2) [SEQ ID NO: 21],immunoreactive,–,–
"amino acid residues 189-215 of mature ApoA-1: peptide corresponding to amino acid residues 189-215 of mature ApoA-1 of SEQ ID NO: 1, containing helix E (LAEYHAKATEHLSTLSEKAKPALEDLR; UniProt P02647 213-239, looked up, fragment)",less immunoreactive,–,–
Ac-VLESFKVSFLSALEXaaYTKXaaLNT-NH2 (Ac-VLESFKVSFLSALEEYTKKLNT-NH2; lactam 15-19; SMILES CC(=O)N[C@H](C(=O)N[C@@H](CC(C)C)C(=O)N[C@@H](CCC(=O)O)C(=O)N[C@@H](CO)C(=O)N[C@@H](Cc1ccccc1)C(=O)N[C@@H](CCCCN)C(=O)N[C@H](C(=O)N[C@@H](CO)C(=O)N[C@@H](Cc1ccccc1)C(=O)N[C@@H](CC(C)C)C(=O)N[C@@H](CO)C(=O)N[C@@H](C)C(=O)N[C@@H](CC(C)C)C(=O)N[C@@H](CCC(=O)O)C(=O)N[C@H]1CCC(=O)NCCCC[C@@H](C(=O)N[C@@H](CC(C)C)C(=O)N[C@@H](CC(N)=O)C(=O)N[C@H](C(N)=O)[C@@H](C)O)NC(=O)[C@H](CCCCN)NC(=O)[C@H]([C@@H](C)O)NC(=O)[C@H](Cc2ccc(O)cc2)NC1=O)C(C)C)C(C)C) [F4L1],–,increased alpha-helical content,–
"Ac-KELYLLKFTVESKVGSTELPLNFSLA-NH2 [scrambled F3, reference compound]",–,–,inhibition of binding of patient serum IgG to intact ApoA-I (anti-ApoA-I antibodies [3]; [6]): absence of dose-dependent inhibition
"GLLPVLESFKVSFLSALEEYTKKLNT (Ac-GLLPVLESFKVSFLSALEEYTKKLNT-NH2) [F3, reference compound]",–,–,inhibition of binding of patient serum IgG to intact ApoA-I (anti-ApoA-I antibodies [3]; [6]): effect observed
